From US9073821B2, “Hydroxamic acid derivative” (priority 2010, dated 2015)
pIC50: −log10 of the molar value.

molecular target: Pseudomonas aeruginosa LpxC enzyme (Pseudomonas aeruginosa (strain ATCC 15692 / DSM 22644 / CIP 104116 / JCM 14847 / LMG 12228 / 1C / PRS 101 / PAO1), UniProt P47205); experiment: biochemical; assay type: biochemical; settings: class symbols A/B/C by IC50; Table 3; read-out: Enzyme inhibitory activity (inhibitory activity on Pseudomonas aeruginosa LpxC enzyme)
Method: Test 1: Evaluation of the Inhibitory Activity on Pseudomonas aeruginosa LpxC Enzyme
An inhibition curve was constructed for each test compound by performing the aforementioned reaction at varying concentrations of the test compound. From this inhibition curve, the concentration of the test compound at which the formation of the reaction product was suppressed by 50% was determined as the IC50 of the test compound, which was an index for the inhibitory activity on Pseudomonas aeruginosa LpxC enzyme.

| pIC50 | Compound |
| --- | --- |
| > 8.00 | CN(C(=O)c1ccc(C#Cc2ccc(CN3CCCOCC3)cc2)cc1)C(C(=O)NO)C(=O)NCc1ccccn1 (stereo not shown) [Compound 520, N-hydroxy-2-{methyl[(4-{[4-(1,4-oxazepan-4-ylmethyl)phenyl]ethynyl}phenyl)carbonyl]amino}-N′-(pyridin-2-ylmethyl)propanediamide] |
| > 8.00 | CNC(=O)[C@@](C)(C(=O)NO)N(C)C(=O)c1ccc(C#Cc2coc(CN3CCCOCC3)c2)cc1 [Compound 583, (2S)-N-hydroxy-N′,2-dimethyl-2-{methyl[(4-{[5-(1,4-oxazepan-4-ylmethyl)furan-3-yl]ethynyl}phenyl)carbonyl]amino}propanediamide] |
| 7.00 to 8.00 | CNC(=O)[C@@](C)(C(=O)NO)N(C)C(=O)c1ccc(C#Cc2csc(C)n2)cc1 [Compound 586, (2S)-N-hydroxy-N′,2-dimethyl-2-[methyl({4-[(2-methyl-1,3-thiazol-4-yl)ethynyl]phenyl}carbonyl)amino]propanediamide] |
| > 8.00 | CNC(=O)C(C(=O)NO)N(C)C(=O)c1ccc(C#CC#Cc2cnn(C)c2)cc1 (stereo not shown) [Compound 511, N-hydroxy-N′-methyl-2-[methyl({4-[4-(1-methyl-1H-pyrazol-4-yl)buta-1,3-diyn-1-yl]phenyl}carbonyl)amino]propanediamide] |

same assay, conditions: inhibitory activity on Pseudomonas aeruginosa LpxC enzyme, class symbols A/B/C; read-out: Enzyme inhibitory activity

| Compound | pIC50 |
| --- | --- |
| CNC(=O)C(C(=O)NO)N(C)C(=O)c1ccc(-c2ccc(OCCOC)cc2)cc1 (stereo not shown) [Compound 191, N-hydroxy-2-[{[4′-(2-methoxyethoxy)biphenyl-4-yl]carbonyl}(methyl)amino]-N′-methylpropanediamide] | > 8.00 |
| CNC(=O)C(C(=O)NO)N(C)C(=O)c1ccc(C#Cc2ccc(CN3CCOCC3)cc2)cc1 (stereo not shown) [Compound 167, N-hydroxy-N′-methyl-2-[methyl(4-{[4-(morpholin-4-ylmethyl)phenyl]ethynyl}benzoyl)amino]propanediamide] | > 8.00 |
| CNC(=O)C(C(=O)NO)N(C)C(=O)c1ccc(/C=C/c2ccccc2)cc1 (stereo not shown) [Compound 63, N-hydroxy-N′-methyl-2-(methyl {4-[(E)-2-phenylethenyl]benzoyl}amino)propanediamide] | 7.00 to 8.00 |
| CNC(=O)C(NC(=O)c1ccc(C#Cc2ccc(CN3CCCOCC3)cc2)cc1)C(=O)NO (stereo not shown) [Compound 117, N-hydroxy-N′-methyl-2-[(4-{[4-(1,4-oxazepan-4-ylmethyl)phenyl]ethynyl}benzoyl)amino]propanediamide] | > 8.00 |
| CNC(=O)C(C(=O)NO)N(C)C(=O)c1ccc(-c2ccc(OCCCN(C)Cc3ccccc3)cc2NC)cc1 (stereo not shown) [Compound 106, 2-[{[4′-{3-[benzyl(methyl)amino]propoxy}-2′-(methylamino)biphenyl-4-yl]carbonyl}(methyl)amino]-N-hydroxy-N′-methylpropanediamide] | 7.00 to 8.00 |
| CC(C)OCCNC(=O)C(NC(=O)c1ccc(-c2ccc(OCCO)cc2)cc1)C(=O)NO (stereo not shown) [Compound 10, N-hydroxy-2-({[4′-(2-hydroxyethoxy)biphenyl-4-yl]carbonyl}amino)-N′-[2-(propan-2-yloxy)ethyl]propanediamide] | 7.00 to 8.00 |
| CNC(=O)C(C(=O)NO)N(C)C(=O)c1ccc(-c2ccncc2)cc1 (stereo not shown) [Compound 169, N-hydroxy-N′-methyl-2-{methyl[4-(pyridin-4-yl)benzoyl]amino}propanediamide] | 7.00 to 8.00 |
| CNC(=O)C(C(=O)NO)N(C)C(=O)c1ccc(-c2ccc(CNCC(F)F)cc2)cc1 (stereo not shown) [Compound 204, 2-{[(4′-{[(2,2-difluoroethyl)amino]methyl}biphenyl-4-yl)carbonyl](methyl)amino}-N-hydroxy-N′-methylpropanediamide] | 7.00 to 8.00 |
| CNC(=O)C(C(=O)NO)N(C)C(=O)c1ccc(-c2ccc(OCCCNc3ccccc3)cc2)cc1 (stereo not shown) [Compound 75, N-hydroxy-N′-methyl-2-[methyl({4′-[3-(phenylamino)propoxy]biphenyl-4-yl}carbonyl)amino]propanediamide] | > 8.00 |
| CNC(=O)C(C(=O)NO)N(C(=O)c1ccc(-c2ccccc2)cc1)C1CCC1 (stereo not shown) [Compound 163, 2-[(biphenyl-4-ylcarbonyl)(cyclobutyl)amino]-N-hydroxy-N′-methylpropanediamide] | 7.00 to 8.00 |
| CNC(=O)C(C(=O)NO)N(C)C(=O)c1ccc(-c2ccccc2)cc1O (stereo not shown) [Compound 24, N-hydroxy-2-{[(3-hydroxybiphenyl-4-yl)carbonyl](methyl)amino}-N′-methylpropanediamide] | < 7.00 |
| CNC(=O)C(C(=O)NO)N(C)C(=O)c1ccc(-c2ccc(CCCO)cc2)cc1O (stereo not shown) [Compound 185, N-hydroxy-2-[{[3-hydroxy-4′-(3-hydroxypropyl)biphenyl-4-yl]carbonyl}(methyl)amino]-N′-methylpropanediamide] | < 7.00 |
| O=C(NC(C(=O)NO)C(=O)NCC1CC1)c1ccc(-c2ccc(OCCO)cc2)cc1 (stereo not shown) [Compound 9, N-(cyclopropylmethyl)-N′-hydroxy-2-({[4′-(2-hydroxyethoxy)biphenyl-4-yl]carbonyl}amino)propanediamide] | 7.00 to 8.00 |
| O=C(NC(C(=O)NO)C(=O)NCC(F)F)c1ccc(-c2ccc(OCCO)cc2)cc1 (stereo not shown) [Compound 137, N-(2,2-difluoroethyl)-N′-hydroxy-2-({[4′-(2-hydroxyethoxy)biphenyl-4-yl]carbonyl}amino)propanediamide] | 7.00 to 8.00 |
| CCCNC(=O)C(NC(=O)c1ccc(-c2ccc(OCCO)cc2)cc1)C(=O)NO (stereo not shown) [Compound 142, N-hydroxy-2-({[4′-(2-hydroxyethoxy)biphenyl-4-yl]carbonyl}amino)-N′-propylpropanediamide] | 7.00 to 8.00 |

Results, then the molecule that gave them:

| pIC50 | Compound |
| --- | --- |
| 7.00 to 8.00 | CNC(=O)C(C(=O)NO)N(C)C(=O)c1ccc(-c2ccc(S(C)(=O)=O)cc2)cc1 (stereo not shown) [Compound 352, N-hydroxy-N′-methyl-2-(methyl {[4′-(methylsulfonyl)biphenyl-4-yl]carbonyl}amino)propanediamide] |
| > 8.00 | CNC(=O)C(C(=O)NO)N(C)C(=O)c1ccc(-c2ccc(/C=N/OC)cc2)cc1 (stereo not shown) [Compound 260, N-hydroxy-2-[({4′-[(E)-(methoxyimino)methyl]biphenyl-4-yl}carbonyl)(methyl)amino]-N′-methylpropanediamide] |
| > 8.00 | CNC(=O)C(C(=O)NO)N(C)C(=O)c1ccc(-c2ccc(OCCCN3CCCOCC3)cc2)cc1 (stereo not shown) [Compound 277, N-hydroxy-N′-methyl-2-[methyl({4′-[3-(1,4-oxazepan-4-yl)propoxy]biphenyl-4-yl}carbonyl)amino]propanediamide] |
| 7.00 to 8.00 | CCCNc1ccc(C#Cc2ccc(C(=O)N(C)C(C(=O)NC)C(=O)NO)cc2)nc1 (stereo not shown) [Compound 407, N-hydroxy-N′-methyl-2-{methyl[(4-{[5-(propylamino)pyridin-2-yl]ethynyl}phenyl)carbonyl]amino}propanediamide] |
| 7.00 to 8.00 | CNC(=O)C(C(=O)NO)N(C)C(=O)c1ccc(-c2cc(Cl)cc(Cl)c2)cc1 (stereo not shown) [Compound 222, 2-{[(3′,5′-dichlorobiphenyl-4-yl)carbonyl](methyl)amino}-N-hydroxy-N′-methylpropanediamide] |
| 7.00 to 8.00 | CNC(=O)C(C(=O)NO)N(C)C(=O)c1ccc(-c2ccc(C(=O)NC(C)(C)C)cc2)cc1 (stereo not shown) [Compound 248, N′-tert-butyl-N-[1-(hydroxyamino)-3-(methylamino)-1,3-dioxopropan-2-yl]-N-methylbiphenyl-4,4′-dicarboxamide] |
| > 8.00 | CNC(=O)[C@](C)(C(=O)NO)N(C)C(=O)c1ccc(C#Cc2ccc(CN3CCCOCC3)cc2)cc1 [Compound 377, (2R)-N-hydroxy-N′,2-dimethyl-2-{methyl[(4-{[4-(1,4-oxazepan-4-ylmethyl)phenyl]ethynyl}phenyl)carbonyl]amino}propanediamide] |
| < 7.00 | CNC(=O)C(C(=O)NO)N(C)C(=O)c1ccc(-c2cncc(OC)c2)cc1 (stereo not shown) [Compound 447, N-hydroxy-2-[{[4-(5-methoxypyridin-3-yl)phenyl]carbonyl}(methyl)amino]-N′-methylpropanediamide] |
| 7.00 to 8.00 | CNC(=O)C(C(=O)NO)N(C)C(=O)c1ccc(-c2cccc(OC)c2)cc1 (stereo not shown) [Compound 279, N-hydroxy-2-{[(3′-methoxybiphenyl-4-yl)carbonyl](methyl)amino}-N′-methylpropanediamide] |
| > 8.00 | CNC(=O)C(C(=O)NO)N(C)C(=O)c1ccc(-c2ccc(C(C)(F)F)cc2)cc1 (stereo not shown) [Compound 253, 2-[{[4′-(1,1-difluoroethyl)biphenyl-4-yl]carbonyl}(methyl)amino]-N-hydroxy-N′-methylpropanediamide] |
| > 8.00 | CNC(=O)C(C(=O)NO)N(C)C(=O)c1ccc(-c2ccc(N3CC(OC)C3)cc2)cc1 (stereo not shown) [Compound 229, N-hydroxy-2-[{[4′-(3-methoxyazetidin-1-yl)biphenyl-4-yl]carbonyl}(methyl)amino]-N′-methylpropanediamide] |
| < 7.00 | CNC(=O)C(C(=O)NO)N(C)C(=O)c1ccc(-c2cncc(C(F)(F)F)c2)cc1 (stereo not shown) [Compound 446, N-hydroxy-N′-methyl-2-[methyl({4-[5-(trifluoromethyl)pyridin-3-yl]phenyl}carbonyl)amino]propanediamide] |
| < 7.00 | CNC(=O)C(C(=O)NO)N(C)C(=O)c1cnc(-c2ccccc2)cn1 (stereo not shown) [Compound 299, N-hydroxy-N′-methyl-2-{methyl[(5-phenylpyrazin-2-yl)carbonyl]amino}propanediamide] |
| 7.00 to 8.00 | CNC(=O)C(C(=O)NO)N(C)C(=O)c1ccc(N2Cc3ccccc3C2)cc1 (stereo not shown) [Compound 250, 2-{[4-(1,3-dihydro-2H-isoindol-2-yl)benzoyl](methyl)amino}-N-hydroxy-N′-methylpropanediamide] |
| 7.00 to 8.00 | CCCNC(=O)c1ccc(-c2ccc(C(=O)N(C)C(C(=O)NC)C(=O)NO)cc2)cc1 (stereo not shown) [Compound 257, N-[1-(hydroxyamino)-3-(methylamino)-1,3-dioxopropan-2-yl]-N-methyl-N′-propylbiphenyl-4,4′-dicarboxamide] |
